Broadly, the microsomal CLint is the rate of metabolic loss divided by the concentration. What is called CLint scaled is a measure of how fast metabolising enzymes remove a compound, apart from limits set by blood flow. The Papp is the rate of passage across a membrane or cell layer, normalised by area and donor concentration. A low value points to slow passage. For orientation: Km means the concentration of substrate that gives half-maximal velocity. By logD is commonly meant the decadic logarithm of the distribution of all forms, ionised or not, between an organic phase and buffer at a given pH. A lower logD goes with lower lipophilicity. By hepatocyte CLint is commonly meant a measure of how fast metabolising enzymes remove a compound, apart from limits set by blood flow. The low end stands for slow turnover, the high end for rapid turnover.

Molecules are shown by their SMILES. Where “and” joins values, the source holds several entries; their conditions need not be identical. Equal entries are not always repeated.

The text below walks through data of publication PMC12592420, “A mismatch in enzyme-redox partnerships underlies divergent cytochrome P450 activities between human hepatocytes and microsomes” (Communications Biology, 2025).

Data set [1] in a line: CLint in NADH-supplemented human liver microsomes. To be noted: for microsomal CLint at 1 µM / CLint scaled at 1 µM: human. As to the method: (§1) Calculation and scaling of CLint,u was done using the equation below and 45 mg of microsomal protein per gram of liver. HLMCLint,u=ln2/x1/t1/2(min)xmLincubation/mgmicrosomalproteinx45mgmicrosomalprotein/gliverx21gliver/kg/Fuinc
Background: Microsomes from liver hold many membrane-bound enzymes, among them those of drug oxidation.

A further data set concerns rat hepatocytes. The experiment in a line: Free fraction in rat hepatocytes as surrogate for HH, equilibrium dialysis. In kind it is in vitro ADME. To be noted: fraction unbound, measured or estimated by in silico models of Fuinc.
Data set [2] in a line: Free fraction in HLM incubation, equilibrium dialysis. In kind it is in vitro ADME, human. The settings on record: fraction unbound, measured or estimated by in silico models of Fuinc.
A short description of data set [3]: Midazolam CLint in HLM with NADPH:NADH (1:1). In kind it is in vitro ADME, human. To be noted: cofactor NADH:NADPH (1:1) (Fig. 5b).
Data set [4] can be described thus: Incubations in HLM + NADPH from the same donor pool as S9. In kind it is in vitro ADME, human. To be noted: for microsomal CLint at 1 µM: human, human liver microsomes, pH 7.4, Midazolam CLint. The text has this: Liver S9 (lot 1810001, pool of 50, Xenotech) and HLM (pool of 50, lot 1810003, Xenotech) from the same pool of donors were purchased from Xenotech.

Data set [5] in a line: in vitro. The settings on record: human, Caco-2.
Data set [6] has as its target T1, recombinant human CYP3A4-Cytb5R containing cytochrome b5 (Homo sapiens, UniProt P08684).
T1 construct: purchased BioIVT (custom synthesis) CE00001(CYP3A4), batch CPD034-3A4; host or cells: bactosomes
Description: Midazolam CLint by non-canonical recombinant CYP3A4-Cytb5R with cytochrome b5, with and without gefitinib. In kind it is in vitro ADME. To be noted: CYP3A4_Cytb5R, NADPH, listed as Mid. As to the method:
(§2) As commercial recombinant human CYPs co-express the individual CYP and reductase with an option to include cytochrome b5. A custom synthesis co-expressing CYP3A4 or CYP1A2 and Cytb5R plus cytochrome b5 was, therefore, ordered from BioIVT and the bactosomes were compared with canonical CYP-POR enzymes plus cytochrome b5.
(§3) As the reaction-rate was much higher, aliquots were taken at 0, 1, 2, 3, 4 and 5 min.

Data set [7] concerns the target T2, recombinant human CYP3A4-POR containing cytochrome b5 (Homo sapiens, UniProt P08684).
T2 construct: purchased BioIVT (named in b64 for the custom bactosomes); host or cells: bactosomes (E. coli is stated for the panel, not for this product)
Description: Midazolam CLint by canonical recombinant CYP3A4-POR with cytochrome b5, with and without gefitinib. In kind it is in vitro ADME. The settings on record: CYP3A4_POR, NADPH, listed as Mid. How it is done: as §3

Data set [8] in a line: in vitro. To be noted: human, hepatocytes. As to the method: Cryopreserved HH prepared from a mixed-gender pool of twenty donors (product X008000, lot EEO, BIOIVT), ten-donors (product S01205, lot MTJ, BIOIVT), ten donors (product S01205 lot LYB, BIOIVT) were utilised in the experiments. Cryopreserved HH were rapidly thawed in a water bath set at 37 °C and added to Leibovitz media that had been pre-warmed in the water bath. The suspension of cells was mixed gently and centrifuged at 40 × g for 4 min at room temperature. Excess media was removed, and the cells were re-suspended in 5 mL of fresh Leibovitz media. The cells were counted using an automated cell counter (Cellometer).

Data set [9] is described as follows: Incubations in human liver S9 + NADPH (same donor pool as HLM). Format: in vitro ADME. The settings on record: human, human liver S9, pH 7.4, Midazolam CLint.
Data set [10] is described as follows: CLint in NADPH-supplemented human liver microsomes. The settings on record: for microsomal CLint at 1 µM / CLint scaled at 1 µM: human. How it is done: as §1
A further data set deals with Cytb5R. The settings on record: Cytb5R for cofactor; cited from earlier work.
The test system of another data set is POR. To be noted: POR for cofactor; cited from earlier work.
The nature of data set [11]: Intrinsic permeability in Caco-2 cells with efflux inhibited. The settings on record: human, Caco-2.
Data set [12] is described as follows: LogD pH 7.4, octanol/phosphate buffer. The settings on record: octanol/phosphate buffer, pH 7.4.
The target of a further data set is T3, CYP1A2-Cytb5R (Homo sapiens, UniProt P05177).
T3 construct: purchased BioIVT (custom synthesis) CE00001 (CYP1A2), batch CPD034-1A2-30; host or cells: bactosomes
T3 sequence (P05177 1-516): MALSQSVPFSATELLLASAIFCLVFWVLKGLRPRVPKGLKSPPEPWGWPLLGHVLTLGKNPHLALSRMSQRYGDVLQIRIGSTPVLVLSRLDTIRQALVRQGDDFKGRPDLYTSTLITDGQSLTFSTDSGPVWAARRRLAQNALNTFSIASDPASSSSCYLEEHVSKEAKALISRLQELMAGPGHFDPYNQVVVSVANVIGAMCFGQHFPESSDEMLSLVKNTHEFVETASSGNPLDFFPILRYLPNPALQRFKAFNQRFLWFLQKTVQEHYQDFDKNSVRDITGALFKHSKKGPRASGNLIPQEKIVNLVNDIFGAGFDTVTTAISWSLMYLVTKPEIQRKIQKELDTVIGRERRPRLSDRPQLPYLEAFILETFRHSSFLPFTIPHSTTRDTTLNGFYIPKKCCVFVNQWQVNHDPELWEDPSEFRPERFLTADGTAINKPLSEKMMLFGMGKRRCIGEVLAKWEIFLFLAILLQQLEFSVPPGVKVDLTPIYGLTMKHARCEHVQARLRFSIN
The experiment in a line: Turnover by non-canonical recombinant CYP1A2-Cytb5R. In kind it is in vitro ADME. The settings on record: noncanonical CYP1A2-Cytb5R.
Excerpt: as §2

Setting [13] is: HLM (same donors as S9) + NADPH + 5 uM GEF (Fig. 6b).
Setting [14] is: HLM (same donors as S9) + NADPH, midazolam 1 µM alone (Fig. 6b).

T1 sequence (P08684 whole entry): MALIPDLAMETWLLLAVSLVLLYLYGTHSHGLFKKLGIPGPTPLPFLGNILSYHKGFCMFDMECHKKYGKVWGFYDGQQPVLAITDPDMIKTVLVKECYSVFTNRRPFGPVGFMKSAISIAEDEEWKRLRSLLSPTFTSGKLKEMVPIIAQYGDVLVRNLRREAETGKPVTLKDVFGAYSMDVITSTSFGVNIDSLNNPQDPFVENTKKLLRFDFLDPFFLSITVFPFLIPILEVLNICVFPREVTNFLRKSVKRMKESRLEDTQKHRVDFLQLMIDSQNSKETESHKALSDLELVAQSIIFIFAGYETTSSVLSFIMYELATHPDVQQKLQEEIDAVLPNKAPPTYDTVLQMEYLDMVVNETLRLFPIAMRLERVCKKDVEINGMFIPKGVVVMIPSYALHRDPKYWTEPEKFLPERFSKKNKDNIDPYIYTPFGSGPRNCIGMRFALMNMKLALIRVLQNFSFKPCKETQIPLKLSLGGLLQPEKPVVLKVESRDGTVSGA
T2 sequence (P08684 whole entry): as above

Regarding `Cc1ncc2n1-c1ccc(Cl)cc1C(c1ccccc1F)=NC2` [Midazolam], the “Midazolam CLint” value in [1] (HLM + NADH, control without gefitinib (Fig. 3d)) is 23.9 µL/min/mg and 21.4 µL/min/mg; in [4] (setting [13]) it was 392.5 µL/min/mg and 377.3 µL/min/mg; in data set [4] (setting [14]), 329.2 µL/min/mg; in [6] (Mid + GEF 5 µM (Fig. 5f)), 19.6 µL/min/nmol and 13.9 µL/min/nmol and 18.8 µL/min/nmol; in data set [6] (Mid alone (Fig. 5f)) it was 6.9 µL/min/nmol and 5.5 µL/min/nmol and 5.1 µL/min/nmol; in [7] (Mid + GEF 5 µM (Fig. 5e)), 3292.07 µL/min/nmol and 3281.83 µL/min/nmol and 2734.43 µL/min/nmol. Also, the “Midazolam CLint” value was 4061.76 µL/min/nmol and 4262.77 µL/min/nmol and 3511.63 µL/min/nmol in data set [7] (Mid alone (Fig. 5e)); 265.8 µL/min/mg and 269.7 µL/min/mg in [10] (HLM + NADPH, control without gefitinib (Fig. 3d)). The “Scaled midazolam CLint,u” value in data set [1] (HLM, cofactor NADH (Fig. 5b)) is 248.867 mL/min/kg and 261.398 mL/min/kg; in data set [3] it was 761.569 mL/min/kg and 740.511 mL/min/kg; in data set [10] (HLM, cofactor NADPH (Fig. 5b)) it was 703.964 mL/min/kg and 722.238 mL/min/kg. For the same molecule, the microsomal CLint at 1 µM in data set [1] (microsomes, pH 7.4, HLM_NADH CLint, 1 µM, single determination, Fig. 4a,d) amounted to 103 µL/min/mg; in data set [1] (microsomes, pH 7.4, Midazolam CLint, HLM + NADH, control without gefitinib (Fig. 3d)), 14.7 µL/min/mg; in data set [4] (setting [13]) it was 336 µL/min/mg; in data set [4] (setting [14]), 276 µL/min/mg; in data set [9] (S9 + NADPH + 5 uM GEF (Fig. 6b)), 150 µL/min/mg; in [9] (S9 + NADPH, midazolam 1 µM alone (Fig. 6b)) it was 77.2 µL/min/mg. For the same molecule, the microsomal CLint at 1 µM came to 295 µL/min/mg in [10] (microsomes, pH 7.4, HLM_NADPH CLint, 1 µM, single determination, Fig. 4a,d) and 288 µL/min/mg in data set [10] (microsomes, pH 7.4, Midazolam CLint, HLM + NADPH, control without gefitinib (Fig. 3d)). For the same molecule, the CLint scaled at 1 µM in [1] (microsomes, pH 7.4, NADH_HLM_scaled_CLint,u, Fig. 4a,d) is 213 mL/min/kg; in data set [1] (microsomes, pH 7.4, Scaled midazolam CLint,u, HLM, cofactor NADH (Fig. 5b)), 247 mL/min/kg; in [3] (human, human liver microsomes, pH 7.4, Scaled midazolam CLint,u), 762 mL/min/kg; in data set [10] (microsomes, pH 7.4, Midazolam scaled CLint,u, HLM + NADPH, no gefitinib (Fig. 3a)) it was 619 mL/min/kg; in data set [10] (microsomes, pH 7.4, Scaled HLM CLint,u average, NADPH-HLM, average, Fig. 1), 649 mL/min/kg; in data set [10] (microsomes, pH 7.4, Scaled HLM CLint,u, NADPH-HLM, individual determinations 1-3, Fig. 1), 643 mL/min/kg. Also, the CLint scaled at 1 µM in data set [10] (microsomes, pH 7.4, Scaled midazolam CLint,u, HLM, cofactor NADPH (Fig. 5b)) came to 693 mL/min/kg. Besides, in the data set with rat hepatocytes, the fu_ratHH is 0.543. In addition, the fu_HLM in [2] is 0.454. In addition, the “Percentage of midazolam alone” value in [4] (setting [13]) was 121.498% and 119.228% and 122.262%. Besides, in “in vitro [5]”, the Papp came out at 47.5 ×10⁻⁶ cm/s. Further, the CLint scaled is 90.5 mL/min/kg in the data set “in vitro [8]” (HH_scaled_CLint,u), 104 mL/min/kg in “in vitro [8]” (Midazolam scaled CLint,u), 62.8 mL/min/kg in “in vitro [8]” (Scaled HH CLint,u) and 51.2 mL/min/kg in “in vitro [8]” (Scaled HH CLint,u average). Further, in [10] (Fig. 4a,d), the “NADPH_HLM_scaled_CLint,u” value worked out at 614.71 mL/min/kg. Also, the “Midazolam scaled CLint,u” value in data set [10] (HLM + NADPH, no gefitinib (Fig. 3a)) is 531.926 mL/min/kg and 593.803 mL/min/kg. Also, the “Scaled HLM CLint,u” value in [10] (NADPH-HLM, individual determinations 1-3, Fig. 1) was 632.553 mL/min/kg and 670.23 mL/min/kg.
In the case of `NC(=O)C1=CN([C@@H]2O[C@H](COP(=O)(O)OP(=O)(O)OC[C@H]3O[C@@H](n4cnc5c(N)ncnc54)[C@H](O)[C@@H]3O)[C@@H](O)[C@H]2O)C=CC1` [NADH], the Km in the data set with Cytb5R was 6 µM; in the data set on POR, 48000 µM.
With `NC(=O)C1=CN([C@@H]2O[C@H](COP(=O)(O)OP(=O)(O)OC[C@H]3O[C@@H](n4cnc5c(N)ncnc54)[C@H](OP(=O)(O)O)[C@@H]3O)[C@@H](O)[C@H]2O)C=CC1` [NADPH], the Km with Cytb5R is 1000 µM; with POR it was 2 to 15 µM.
Take `CCOc1ccc(NC(C)=O)cc1` [Phenacetin]: the microsomal CLint at 1 µM was 5.68 µL/min/mg in data set [1] (human liver microsomes + NADH, pH 7.4) and 24.5 µL/min/mg in data set [10] (human liver microsomes + NADPH, pH 7.4). Moreover, the intrinsic clearance (CLint scaled) at 1 µM in data set [1] (human liver microsomes, pH 7.4) is 5.66 mL/min/kg; in [10] (human liver microsomes, pH 7.4, NADPH_HLM_scaled_CLint,u, Fig. 4a,d), 24.4 mL/min/kg. Besides, the fu_ratHH in the data set with rat hepatocytes was 0.955. Besides, in data set [2], the fu_HLM is on record as 0.948. In [11], this molecule came in with an apparent permeability coefficient (Papp) at 2 h, 10 µM of 76.1 ×10⁻⁶ cm/s. In data set [12], the logD amounted to 1.48. This molecule showed a hepatocyte CLint in “in vitro [8]” (both) of 7.38 µL/min/1e6 cells. Also, the intrinsic clearance (CLint scaled) in “in vitro [8]” (HH_scaled_CLint,u, Fig. 4a) is 19.5 mL/min/kg. In addition, at CYP1A2-Cytb5R, the “turnover (metabolite formation or disappearance of parent)” value was “no detectable turnover”.
